The values below are quoted from earlier work in PubChem BioAssay AID1259409 (Chemical Carcinogenesis Research Information System (CCRIS), 2018).

In the series the test system is rodent chemically induced tumor inhibition, incidence and multiplicity. Briefly: CCRIS tumor inhibitor studies.

Turning to `CC1CCC(=O)O1` (stereo not drawn), the “tumour outcome (control, treated, inhibition, significance)” value (Carcinogen: BENZO[A]PYRENE, 50-32-8, Dose [Inhibitor]: 0.034 MMOL/G IN DIET FOR 5 WK BEGINNING 1 WK PRIOR TO CARCINOGEN DOSE (STUDY DURATION: 21 WK), Route [Inhibitor]: ORAL, Species: MOUSE, Strain/Sex: ICR/FEMALE, Target Tissue: Type of Lesion: FORESTOMACH: TUMOR, Dose [Carcinogen]: 1 MG IN 0.2 ML CORN OIL 2/WK FOR 4 WK, Promoter: NONE USED) was “(95%, 95%, 0%, not significant”.

As to `O=C1NS(=O)(=O)c2ccccc21`, the “tumour outcome (control, treated, inhibition, significance)” value is, setting by setting: (Carcinogen: N-BUTYL-N-(4-HYDROXYBUTYL)NITROSAMINE, 3817-11-6, Dose [Inhibitor]: 0.5% DIET DAILY FOR 34 WK STARTING AT COMPLETION OF CARCINOGEN TREATMENT (STUDY DURATION: 38 WK), Route [Inhibitor]: ORAL, Species: RAT, Strain/Sex: F344/MALE, Target Tissue: Type of Lesion: URINARY BLADDER: PAPILLOMA, Dose [Carcinogen]: 0.01% IN DRINKING WATER FOR 4 WK, Promoter: NONE USED) 33%, 33%, 0%, not significant; (Carcinogen: N-BUTYL-N-(4-HYDROXYBUTYL)NITROSAMINE, 3817-11-6, Dose [Inhibitor]: 5% DIET DAILY FOR 34 WK STARTING AT COMPLETION OF CARCINOGEN TREATMENT (STUDY DURATION: 38 WK), Route [Inhibitor]: ORAL, Species: RAT, Strain/Sex: F344/MALE, Target Tissue: Type of Lesion: URINARY BLADDER: PAPILLOMA, Dose [Carcinogen]: 0.01% IN DRINKING WATER FOR 4 WK, Promoter: NONE USED) 33%, 20%, 39%, not significant.

In the case of `CC1=C(/C=C/C(C)=C/C=C/C(C)=C/C(=O)Nc2ccc(C(=O)O)cc2)C(C)(C)CCC1`, the “tumour outcome (control, treated, inhibition, significance)” value is reported as 35%, 38%, -9%, not significant (Carcinogen: L-AZASERINE, 115-02-6, Dose [Inhibitor]: 1 MMOL/KG DIET DAILY FOR 91 D FOLLOWED BY 0.5 MMOL/KG DIET DAILY FOR 246 D DURING A 358 D PERIOD STARTING 1 WK AFTER COM, Route [Inhibitor]: ORAL, Species: RAT, Strain/Sex: WISTAR-LEWIS/FEMALE, Target Tissue: Type of Lesion: PANCREAS: ADENOMA, Dose [Carcinogen]: 10 MG/KG BW 1/WK FOR 15 WK, Promoter: NONE USED); 48%, 8%, 83%, not significant (Carcinogen: L-AZASERINE, 115-02-6, Dose [Inhibitor]: 1 MMOL/KG DIET DAILY FOR 91 D FOLLOWED BY 0.5 MMOL/KG DIET DAILY FOR 246 D DURING A 358 D PERIOD STARTING 1 WK AFTER COM, Route [Inhibitor]: ORAL, Species: RAT, Strain/Sex: WISTAR-LEWIS/FEMALE, Target Tissue: Type of Lesion: PANCREAS: CARCINOMA IN SITU, Dose [Carcinogen]: 10 MG/KG BW 1/WK FOR 15 WK, Promoter: NONE USED); 4%, 0%, 100%, not significant (Carcinogen: L-AZASERINE, 115-02-6, Dose [Inhibitor]: 1 MMOL/KG DIET DAILY FOR 91 D FOLLOWED BY 0.5 MMOL/KG DIET DAILY FOR 246 D DURING A 358 D PERIOD STARTING 1 WK AFTER COM, Route [Inhibitor]: ORAL, Species: RAT, Strain/Sex: WISTAR-LEWIS/FEMALE, Target Tissue: Type of Lesion: PANCREAS: CARCINOMA, Dose [Carcinogen]: 10 MG/KG BW 1/WK FOR 15 WK, Promoter: NONE USED); 87%, 46%, 47%, p<0.05 (Carcinogen: L-AZASERINE, 115-02-6, Dose [Inhibitor]: 1 MMOL/KG DIET DAILY FOR 91 D FOLLOWED BY 0.5 MMOL/KG DIET DAILY FOR 246 D DURING A 358 D PERIOD STARTING 1 WK AFTER COM, Route [Inhibitor]: ORAL, Species: RAT, Strain/Sex: WISTAR-LEWIS/FEMALE, Target Tissue: Type of Lesion: PANCREAS: NEOPLASM, Dose [Carcinogen]: 10 MG/KG BW 1/WK FOR 15 WK STARTING 15 WK, Promoter: NONE USED); 29%, 16%, 45%, not significant (Carcinogen: L-AZASERINE, 115-02-6, Dose [Inhibitor]: 1 MMOL/KG DIET DAILY FOR 91 D FOLLOWED BY 0.5 MMOL/KG DIET DAILY FOR 246 D DURING A 358 D PERIOD STARTING 1 WK AFTER COM, Route [Inhibitor]: ORAL, Species: RAT, Strain/Sex: WISTAR-LEWIS/MALE, Target Tissue: Type of Lesion: PANCREAS: ADENOMA, Dose [Carcinogen]: 10 MG/KG BW 1/WK FOR 15 WK, Promoter: NONE USED); 58%, 64%, -10%, not significant (Carcinogen: L-AZASERINE, 115-02-6, Dose [Inhibitor]: 1 MMOL/KG DIET DAILY FOR 91 D FOLLOWED BY 0.5 MMOL/KG DIET DAILY FOR 246 D DURING A 358 D PERIOD STARTING 1 WK AFTER COM, Route [Inhibitor]: ORAL, Species: RAT, Strain/Sex: WISTAR-LEWIS/MALE, Target Tissue: Type of Lesion: PANCREAS: CARCINOMA IN SITU, Dose [Carcinogen]: 10 MG/KG BW 1/WK FOR 15 WK, Promoter: NONE USED). Besides, the “tumour outcome (control, treated, inhibition, significance)” value is reported as 8%, 16%, -100%, not significant (Carcinogen: L-AZASERINE, 115-02-6, Dose [Inhibitor]: 1 MMOL/KG DIET DAILY FOR 91 D FOLLOWED BY 0.5 MMOL/KG DIET DAILY FOR 246 D DURING A 358 D PERIOD STARTING 1 WK AFTER COM, Route [Inhibitor]: ORAL, Species: RAT, Strain/Sex: WISTAR-LEWIS/MALE, Target Tissue: Type of Lesion: PANCREAS: CARCINOMA, Dose [Carcinogen]: 10 MG/KG BW 1/WK FOR 15 WK, Promoter: NONE USED) and 95%, 96%, -1%, not significant (Carcinogen: L-AZASERINE, 115-02-6, Dose [Inhibitor]: 1 MMOL/KG DIET DAILY FOR 91 D FOLLOWED BY 0.5 MMOL/KG DIET DAILY FOR 246 D DURING A 358 D PERIOD STARTING 1 WK AFTER COM, Route [Inhibitor]: ORAL, Species: RAT, Strain/Sex: WISTAR-LEWIS/MALE, Target Tissue: Type of Lesion: PANCREAS: NEOPLASM, Dose [Carcinogen]: 10 MG/KG BW 1/WK FOR 15 WK, Promoter: NONE USED).

`C[Se+](C)CC(=O)[O-]`: the “tumour outcome (control, treated, inhibition, significance)” value (Carcinogen: 7,12-DIMETHYLBENZ[A]ANTHRACENE, 57-97-6, Dose [Inhibitor]: 0, 0.000025 MOL/KG DIET BEGINNING 2 WK PRIOR TO CARCINOGEN AND CONTINUED FOR STUDY DURATION (STUDY DURATION: 25 WK), Route [Inhibitor]: ORAL, Species: RAT, Strain/Sex: CD-1/FEMALE, Target Tissue: Type of Lesion: MAMMARY GLAND: ADENOCARCINOMA, Dose [Carcinogen]: 10 MG ONCE, Promoter: NONE USED) is given as 20/25 (80%), 11/25 (44%), 45%, p<0.05.

As for `Clc1ccc(COC(Cn2ccnc2)c2ccc(Cl)cc2Cl)c(Cl)c1` (stereo not drawn), the “tumour outcome (control, treated, inhibition, significance)” value (Carcinogen: 7,12-DIMETHYLBENZ[A]ANTHRACENE, 57-97-6, Dose [Inhibitor]: 0, 1000 PPM IN DIET FOR DURATION OF STUDY BEGINNING 1 WK PRIOR TO CARCINOGEN DOSE (STUDY DURATION: 107 D), Route [Inhibitor]: ORAL, Species: RAT, Strain/Sex: SPRAGUE-DAWLEY/FEMALE, Target Tissue: Type of Lesion: MAMMARY GLAND: ADENOCARCINOMA, Dose [Carcinogen]: 12 MG ONCE, Promoter: NONE USED) is on record as 96%, 84%, 13%, not significant and the “tumour outcome (control, treated, inhibition, significance)” value (Carcinogen: 7,12-DIMETHYLBENZ[A]ANTHRACENE, 57-97-6, Dose [Inhibitor]: 0, 2000 PPM IN DIET FOR DURATION OF STUDY BEGINNING 1 WK PRIOR TO CARCINOGEN DOSE (STUDY DURATION: 107 D), Route [Inhibitor]: ORAL, Species: RAT, Strain/Sex: SPRAGUE-DAWLEY/FEMALE, Target Tissue: Type of Lesion: MAMMARY GLAND: ADENOCARCINOMA, Dose [Carcinogen]: 12 MG ONCE, Promoter: NONE USED) was 96%, 68%, 29%, not calculated.

On to `N[C@@H]1C[C@H]1c1ccccc1`, for which the “tumour outcome (control, treated, inhibition, significance)” value by setting is: (Carcinogen: N-METHYL-N-NITROSOUREA, 684-93-5, Dose [Inhibitor]: 10 MG/KG OF HIGH (20%) FAT DIET BEGINNING 1 WK POST CARCINOGEN DOSE AND CONTINUING FOR DURATION OF STUDY (STUDY DURATION, Route [Inhibitor]: ORAL, Species: RAT, Strain/Sex: SPRAGUE-DAWLEY/FEMALE, Target Tissue: Type of Lesion: MAMMARY GLAND: TUMOR, Dose [Carcinogen]: 40 MG/KG ONCE, Promoter: NONE USED) 78%, 88%, -13%, not calculated; (Carcinogen: N-METHYL-N-NITROSOUREA, 684-93-5, Dose [Inhibitor]: 10 MG/KG OF LOW (3%) FAT DIET BEGINNING 1 WK POST CARCINOGEN DOSE AND CONTINUING FOR DURATION OF STUDY (STUDY DURATION:, Route [Inhibitor]: ORAL, Species: RAT, Strain/Sex: SPRAGUE-DAWLEY/FEMALE, Target Tissue: Type of Lesion: MAMMARY GLAND: TUMOR, Dose [Carcinogen]: 40 MG/KG ONCE, Promoter: NONE USED) 78%, 83%, -6%, not calculated.

In the case of `CCCCCCCCCCCCCCCC(=O)OCC(COC(=O)CCCCCCCCCCCCCCC)OC(=O)CCCCCCCCCCCCCCC`, the “tumour outcome (control, treated, inhibition, significance)” value (Carcinogen: DIMETHYLBENZANTHRACENE, 57-97-6, Dose [Inhibitor]: APPLIED 3 MIN POST EACH PROMOTER DOSE 3/WK FOR 20 WK BEGINNING 3 D POST CARCINOGEN DOSE (STUDY DURATION: 20 WK), Route [Inhibitor]: DERMAL, Species: MOUSE, Strain/Sex: SWISS/?, Target Tissue: Type of Lesion: SKIN: TUMOR, Dose [Carcinogen]: 250 UG/0.25 ML ONCE, Promoter: CROTON OIL, 8001-28-3) was 100%, 25%, 75%, not calculated.

Take `O=CC[C@@H](O)[C@H](O)[C@H](O)CO`: the outcome (Carcinogen: 1-METHYL-1-NITROSOUREA [684-93-5], Dose [Inhibitor]: 0, 0.02, 0.03% IN DIET 6 D AFTER CARCINOGEN FOR 5 WKS, Route [Inhibitor]: DIET, Species: RAT, Strain/Sex: SPRAGUE-DAWLEY/FEMALE (30,30)/(30,30)/(30,30), Target Tissue: Type of Lesion: MAMMARY GLAND: ADENOCARCINOMA, Dose [Carcinogen]: 50 MG/KG BW AT 21 D OF AGE (STUDY DURATION: 6-7 WKS)) is 25/30 (83.3%); 15/30 (50%), 40%, p<0.001; 15/30 (50%), 40%, p<0.001.
